Measured values taken from patent US20240325370A1, “THERAPEUTIC REGIMENS OF A DEGRADER OF BRD9” (FOGHORN THERAPEUTICS INC., priority 2021, published 2024).
Like-named read-outs stand apart in the source and are kept apart here.

Assays:
BRD9 [1] = molecular target: T1, BRD9 (Homo sapiens, UniProt Q9H8M2); assay: BRD9 degradation by western blot in synovial sarcoma cells (SYO-1, ASKA); type: cell-based; conditions: for DC50: read-out: Fitted DC50
T1 sequence (Q9H8M2 1-597): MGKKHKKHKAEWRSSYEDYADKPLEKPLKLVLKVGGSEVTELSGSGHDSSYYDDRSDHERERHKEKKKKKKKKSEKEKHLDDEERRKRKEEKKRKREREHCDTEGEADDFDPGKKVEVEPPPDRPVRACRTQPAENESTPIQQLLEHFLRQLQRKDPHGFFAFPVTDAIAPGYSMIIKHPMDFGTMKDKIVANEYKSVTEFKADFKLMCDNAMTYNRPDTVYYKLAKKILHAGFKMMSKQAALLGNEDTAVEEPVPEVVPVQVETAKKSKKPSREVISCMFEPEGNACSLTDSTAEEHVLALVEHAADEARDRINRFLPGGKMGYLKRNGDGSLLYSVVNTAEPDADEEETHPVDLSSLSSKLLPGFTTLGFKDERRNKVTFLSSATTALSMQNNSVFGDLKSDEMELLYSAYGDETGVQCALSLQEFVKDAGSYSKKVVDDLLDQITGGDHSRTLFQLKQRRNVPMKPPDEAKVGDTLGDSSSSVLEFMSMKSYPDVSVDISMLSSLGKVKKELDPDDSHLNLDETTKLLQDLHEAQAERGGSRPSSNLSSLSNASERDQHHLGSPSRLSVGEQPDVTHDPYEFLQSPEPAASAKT
Description: Method. Synovial sarcoma cells were plated in 6-well plate at […] cells/well and treated with serial concentrations of BRD9 degrader (10 nM top concentration, diluted 1:3) the next day for two time points at 37° C. Cells were then harvested, washed with cold PBS, and frozen in cell pellets at −80° C. Lysates were prepared by resuspending thawed pellets in 1×RIPA Lysis and Extraction buffer (Thermo Fisher, Cat #89900) with 1× Halt™ Protease and Phosphatase Inhibitor Cocktail, EDTA-free (Thermo Fisher, Cat #78441) and 1:1000 dilution Pierce™ Universal Nuclease for Cell Lysis 25ku (Thermo Fisher, Cat #88700). Lysates were incubated on ice for 10 minutes and then centrifuged in 4° C. at maximum speed (15,000 rpm) for 10 minutes. Samples were then analyzed for total protein using BCA protein quantification assay and diluted to 1 ug/μL with lysis buffer and 1× NuPAGE™ LDS Sample Buffer (4×) (Thermo Fisher, Cat #NP0007) and 1×DTT from 30× stock (Cell Signaling Technologies, Cat #14265S). Samples with 20-25 ug of total protein were loaded into 4-12% Bis-Tris Mini-Gel with 1×MES Running buffer and run at 150V for 45 minutes. Gels were transferred using Trans-Blot® Turbo™ Transfer System (semi-dry) at 25V for 10 minutes (High MW setting) on nitrocellulose blots. Blots were blocked in 5% milk in TBST for 1 hour and probed with BRD9 antibody (Bethyl Labs, Cat #A303-781A, 1:750 for SYO1, and Cell Signaling Technologies, Cat #71232S for ASKA) and beta-Actin antibody (Cell Signaling Technologies, Cat #3700, 1:2000) overnight at 4° C. The next day, blots were washed in TBST 3× and probed with 1:5000 IRDye® 680LT Goat anti-Rabbit IgG Secondary Antibody (LICOR, Cat #926-68021) and 1:10000 IRDye® 800CW Goat anti-Mouse IgG Secondary Antibody (LiCOR, Cat #926-32210) in LiCOR Odyssey® Blocking Buffer (TBS) for 1 hour at room temperature. Blots were washed in TBST 3× and scanned at […] wavelength using LiCOR Odyssey® CLx Imaging System. Western blot signal was quantified using same analyses program included in the same machine. BRD9 signal was quantified by normalizing to beta-actin signal and all samples were normalized to DMSO, set as 100% signal.

[2] = test system: SYO-1 synovial sarcoma xenograft; assay: Intermittent dosing schedules, IP, SYO-1 synovial sarcoma xenograft efficacy; type: in vivo, mice; conditions: for Day 21 Tumor Growth (%) / Day 21 Tumor Size (mm^3): SYO-1 tumor-bearing NOD SCID mice, Mean ± SEM
Source text: The racemate, compound D1, which consists of ˜50% compound S-D1, was utilized in an SYO-1 (a synovial sarcoma xenograft) model to explore if similar efficacy is achievable with an intermittent dosing schedule. Due to technical feasibility and animal-welfare considerations, intraperitoneal (IP) administration was chosen over the IV route. […] Groups of female SYO-1 tumor-bearing NOD SCID mice (n=8/group) were intraperitoneally administered with vehicle or compound D1 for 21 days. Compound D1 was formulated as a suspension in 10% DMSO/40% PEG400/50% deionized water, volume/volume (v/v). […] To determine the level of modulation of BRD9 after each regimen, mice (n=4 mice/time-point) were euthanized and tumor samples were collected at different timepoints post-last dose (Day 21). […] BRD9 levels were assessed at 24, 72 and 168 hours (expected time points of trough plasma concentrations) for QD, BIW, and QW regimens respectively, as indicated in Table 8. Samples were analyzed using Western blot method.

[3] = test system: SYO-1 human biphasic synovial sarcoma tumor; assay: SYO-1 synovial sarcoma xenograft efficacy, daily i.p. dosing; type: in vivo; conditions: 1 mg/kg i.p. daily, 3 weeks; NOD SCID mice
Description: Method: NOD SCID mice (Beijing Anikeeper Biotech, Beijing) were inoculated subcutaneously on the right flank with the single cell suspension of SYO-1 human biphasic synovial sarcoma tumor cells (5×106) in 100 μL Dulbecco's Modified Eagle Medium (DMEM) with 10% fetal bovine serum (FBS). The mice were randomized into either control group [10% dimethyl sulfoxide (DMSO), 40% polyethylene glycol (PEG400) and 50% water], or treatment group D1 when the mean tumor size reached about 117 mm^3. Mice were dosed daily through intraperitoneal (i.p.) route over the course of 3 weeks. All dose volumes were adjusted by body weights in terms of mg/kg.

BRD9 [4] = molecular target: T1, BRD9; assay: Drug washout experiments in SYO-1, ASKA and OCI-AML2 cell lines; conditions: followed by washout
Description: Drug Washout Experiments in SYO-1, ASKA, and OCI-AML2 Cell Lines. To assess the duration of BRD9 protein degradation and recovery post-drug washout, extensive washout experiments were conducted in three cell lines and BRD9 protein levels were assessed through western blot analyses. SYO-1 and ASKA are adherent synovial sarcoma cell lines. OCI-AML2 is an acute myeloid leukemia suspension cell line.
Adherent cells, SYO-1 and ASKA, grown in flasks to log phase growth, were washed with PBS and dissociated by adding TrypLE™ Express.
SYO-1 cells counted and seeded into 6-well plates at a density of 0.5×10^6 cells per well in 2 mL cell culture medium. Two wells were allocated per sample. Plates were incubated at 37° C. with 5% CO2 overnight. […] After 6 hours of incubation, 1×10^6 cells or 2 wells per treated group were harvested and frozen down at −80° C. for the 6-hour treatment sample. The remainder of the compound treated wells were washed four times by replacing all the drug-treated media with an equal volume of fresh media. After the final wash step, cells were incubated in 2 mL fresh media at 37° C. with 5% CO2 for the time points indicated. Washout steps were not performed on wells treated with 0.1% DMSO and cells were harvested at the time indicated.
Two wells were allocated per sample. Plates were incubated at 37° C. with 5% CO2 overnight. […]

[5] = 0.1 mg/kg QD × 21 days IP, Day 21
[6] = 0.35 mg/kg BIW × 3 weeks IP, Day 21
[7] = 0.5 mg/kg QD × 21 days IP, Day 21
[8] = 0.7 mg/kg QW × 3 weeks IP, Day 21
[9] = 3.5 mg/kg QW × 3 weeks IP, Day 21

COc1cc(-c2cn(C)c(=O)c3cnc(N4CCC4)cc23)cc(OC)c1CN1CCC(CN2CCC3(CC2)CN(c2ccc4c(c2)C(=O)N([C@H]2CCC(=O)NC2=O)C4)C3)CC1 (single isomer, unassigned) [Compound S-D1]
DC50 (BRD9 [1]; ASKA, 0.5 h): 340 pM | DC50 (BRD9 [1]; ASKA, 2 h): 12 pM | BRD9 degradation compared with racemic parent compound D1 (BRD9 [1]; SYO-1, 1 or 6 hours (FIGS. 16 and 17)): slightly better | DC50 (BRD9 [1]; SYO-1, 1 h): 92 pM | DC50 (BRD9 [1]; SYO-1, 6 h): 23 pM | potency in degradation of endogenous BRD9 protein (BRD9 [1]; two synovial sarcoma cell lines, early time point): much more potent

COc1cc(-c2cn(C)c(=O)c3cnc(N4CCC4)cc23)cc(OC)c1CN1CCC(CN2CCC3(CC2)CN(c2ccc4c(c2)C(=O)N(C2CCC(=O)NC2=O)C4)C3)CC1 (racemic) [Compound D1, 3-[6-(7-[[1-([4-[6-(azetidin-1-yl)-2-methyl-1-oxo-2,7-naphthyridin-4-yl]-2,6-dimethoxyphenyl]methyl)piperidin-4-yl]methyl]-2,7-diazaspiro[3.5]nonan-2-yl)-1-oxo-3H-isoindol-2-yl]piperidine-2,6-dione]
T/C (%) [2, 5]: 25.4% | TGI (%) [2, 5]: 74.6% | Day 21 Tumor Growth (%) ([2]; 0.1 mg/kg QD × 21 days IP): 535 ± 39% | Day 21 Tumor Size (mm^3) ([2]; 0.1 mg/kg QD × 21 days IP): 552 ± 59 mm^3 | T/C (%) [2, 6]: 49.0% | TGI (%) [2, 6]: 51.0% | Day 21 Tumor Growth (%) ([2]; 0.35 mg/kg BIW × 3 weeks IP): 1033 ± 64% | Day 21 Tumor Size (mm^3) ([2]; 0.35 mg/kg BIW × 3 weeks IP): 1179 ± 117 mm^3 | T/C (%) [2, 7]: 13.4% | TGI (%) [2, 7]: 86.6% | Day 21 Tumor Growth (%) ([2]; 0.5 mg/kg QD × 21 days IP): 284 ± 21% | Day 21 Tumor Size (mm^3) ([2]; 0.5 mg/kg QD × 21 days IP): 341 ± 57 mm^3 | T/C (%) [2, 8]: 45.1% | TGI (%) [2, 8]: 54.9% | Day 21 Tumor Growth (%) ([2]; 0.7 mg/kg QW × 3 weeks IP): 951 ± 115% | Day 21 Tumor Size (mm^3) ([2]; 0.7 mg/kg QW × 3 weeks IP): 1065 ± 107 mm^3 | T/C (%) [2, 9]: 18.0% | TGI (%) [2, 9]: 82.0% | Day 21 Tumor Growth (%) ([2]; 3.5 mg/kg QW × 3 weeks IP): 379 ± 43% | Day 21 Tumor Size (mm^3) ([2]; 3.5 mg/kg QW × 3 weeks IP): 449 ± 69 mm^3 | TGI compared to the vehicle control ([2]; all dosing regimens, IP, Day 21): significant TGI | tumor growth inhibition [3]: tumor growth inhibition | continued BRD9 depletion after washout (BRD9 [4]; ASKA and OCI-AML2 cells, 15.6 nM for 6 h): reproduced | BRD9 depletion after washout (BRD9 [4]; SYO-1 cells treated with 15.6 nM for 6 h): continued depletion of BRD9 up to 7 days
